What was measured:
HeLa cells = experiment: Inhibition of proliferation of HeLa tumor cells ([14C]thymidine incorporation); type: cell-based; settings: Homo sapiens, 48 hours, read-out: Inhibition of cell proliferation IC50, HeLa
Protocol: The proliferation of HeLa or HDMEC cells is evaluated by measuring the incorporation of [^14C]thymidine in the following manner. The HeLa cells (epithelial tumor cells of human origin) are cultured in a DMEM medium (Gibco) which contains 10% of foetal calf serum and antibiotics (1% penicillin, 1% streptomycin). To carry out the proliferation test, the cells are inoculated into 96-well Cytostar microplates (Amersham), at the rate of 5000 cells per well. [^14C]Thymidine (0.1 μCi/well) and the products to be evaluated are then added. Variable concentrations of products of up to 10 μM are used; the DMSO (solvent used to solubilize the products) should not exceed 0.5% in the medium. 48 hours after incubation at 37° C., the radioactivity incorporated into the cells is measured by counting the plate in a TR1-LUX counter (Wallac). The IC50 is defined as the concentration of compound which reduces by 50% the radioactivity compared with an untreated control.

Ames test (mutagenicity) = experiment: Ames test (mutagenicity)
Excerpt: (§1) Another problem posed consisted in obtaining products having all the advantages described above without the disadvantages frequently encountered during the study of products of the chalcone family. These disadvantages are (i) the problems of cardiac toxicity, which can be evaluated by measuring the inhibition of Herg receptors, (ii) finally, and to a lesser degree, the problems of mutagenicity, which can be evaluated in particular in the Ames test.

HDMEC cells = experiment: Inhibition of proliferation of endothelial cells HDMEC ([14C]thymidine incorporation); type: cell-based; settings: Homo sapiens, Endothelial cell, 48 hours
Protocol: The evaluation of the detachment of the endothelial cells in vitro is determined in the following manner. HDMEC cells (Human Dermal Microvascular Endothelial Cells, Promocell, c-122102) are cultured in an ECGM-MV medium which contains 5% foetal calf serum, growth factors (EGF 10 ng/ml, hydrocortisone 1 μg/ml, 0.4% growth supplement with heparin) and antibiotics (amphoteracin 50 ng/ml, gentamycin 50 μg/ml). For the detachment test, the HDMECs are inoculated at 5 000 cells in clear-bottomed 96-well plates (Costar) precoated with fibronectin (10 μg/ml) or vitronectin (1 μg/ml) or gelatin. Twenty-four hours later, the culture medium is replaced with ECGM-MV 0.1% BSA medium containing the products indicated. […] The fluorescence of the cells which remain attached to the substratum of the well is counted using a fluorimeter, Spectrafluor Plus (Tecan excitation 485 nm, and emission 535 nm). The data are the mean of six different samples and are expressed as the percentage of the control (untreated cells).
The proliferation of HeLa or HDMEC cells is evaluated by measuring the incorporation of [^14C]thymidine in the following manner. […] [^14C]Thymidine (0.1 μCi/well) and the products to be evaluated are then added. […] 48 hours after incubation at 37° C., the radioactivity incorporated into the cells is measured by counting the plate in a TR1-LUX counter (Wallac). […]

Tubulin = target: T1, Tubulin (Sus scrofa, UniProt P02550+P02554); experiment: Inhibition of polymerization of tubulin (turbidimetry); type: biochemical; settings: pig brain tubulin 10 μM, turbidity at 350 nm, 37° C.
T1 construct: Tubulin is purified from pig brains according to published methods; from tissue; host or cells: pig brain
Protocol: Tubulin is purified from pig brains according to published methods (Shelanski et al., Proc. Natl. Acad. Sci. USA, 70, 765-768. Weingarten et al., 1975, Proc. Natl. Acad. Sci. USA, 72, 1858-1862). Briefly, the brains are ground and centrifuged in an extraction buffer. The tubulin contained in the supernatant of the extract undergoes two successive cycles of polymerization at 37° C. and depolymerization at 4° C., before being separated from the MAPs (Microtubule Associated Proteins) by chromatography on a phosphocellulose P11 column (Whatman). The tubulin thus isolated is more than 95% pure. It is stored in a buffer called RB/2 30% glycerol whose composition is 50 mM MES-NaOH [2-(N-morpholino)ethanesulfonic acid], pH 6.8; 0.25 mM MgCl2; 0.5 mM EGTA; 30% glycerol (v/v), 0.2 mM GTP (guanosine-5′-triphosphate).
The polymerization of tubulin to microtubules is monitored by turbidimetry as follows: the tubulin is adjusted to a concentration of 10 μM (1 mg/ml) in RB/2 30% glycerol buffer to which 1 mM GTP and 6 mM MgCl2 are added. The polymerization is triggered by an increase in temperature from 6° C. to 37° C. in a cuvette having an optical path length of 1 cm, placed in a UVIKON 931 spectrophotometer (Kontron) equipped with a thermostated cuvette holder. The increase in the turbidity of the solution is monitored at 350 nm.
The compounds of this invention are dissolved at 10 mM in DMSO and added at variable concentrations (0.5 to 10 μM) to the tubulin solution before polymerization. The IC50 is defined as the concentration of compound which inhibits the rate of polymerization by 50%.

Herg receptors = Herg receptors (Homo sapiens, UniProt Q12809); experiment: Inhibition of Herg receptors (cardiac toxicity)
Excerpt: as §1

[1] = tested on: C51 murine adenocarcinoma (colon tumor); experiment: Evaluation of tumor necrosis in vivo; settings: 35 mg/kg, intravenous injection, 24 hours after treatment, female BALB/c mice; listed as EXAMPLE 2
Excerpt: Mice are bred either by IFFA-CREDO (Domaine des Oncins, 69210 L'Arbresle, France) from a breed obtained by Jackson Laboratories, Bar Harbor, Me., USA, or alternatively by Charles River France (76410 St Aubin les Elbeuf, France) from a breed obtained by Charles River, USA. The mice initially weigh more than 18 g at the start of the trial. They have free access to food (UAR reference 113, Villemoisson, 91160 Epinay sur Orge, France) and to water.
The tumors used are currently transplanted in our laboratories. All these tumors are at the Frederick Cancer Research Facility (Frederick, Md., USA) at the repository of frozen tumors of the National Cancer Institute (NCI), or at the American Type Culture Collection (ATCC, Rockville, Md., USA).
The techniques for tumor transplantation, chemotherapy and data analysis have been presented in detail (Corbett et al., 1982a; Corbett et al., 1982b).
To summarize, the animals necessary for one experiment are assembled and bilaterally implanted on day 0 (zero).
The growth of solid tumors develops freely up to the desired size. […]
The samples are then treated, cut into sections, stained with haematoxylin, eosin and saffron yellow, and are then examined […]. The tumor necrosis (necrosis±degeneration) is evaluated microscopically using a scale of extent from 0 to 5: […]
The necrosis due to the experiment was evaluated on an untreated control. […]

T1 sequence (P02550 whole entry): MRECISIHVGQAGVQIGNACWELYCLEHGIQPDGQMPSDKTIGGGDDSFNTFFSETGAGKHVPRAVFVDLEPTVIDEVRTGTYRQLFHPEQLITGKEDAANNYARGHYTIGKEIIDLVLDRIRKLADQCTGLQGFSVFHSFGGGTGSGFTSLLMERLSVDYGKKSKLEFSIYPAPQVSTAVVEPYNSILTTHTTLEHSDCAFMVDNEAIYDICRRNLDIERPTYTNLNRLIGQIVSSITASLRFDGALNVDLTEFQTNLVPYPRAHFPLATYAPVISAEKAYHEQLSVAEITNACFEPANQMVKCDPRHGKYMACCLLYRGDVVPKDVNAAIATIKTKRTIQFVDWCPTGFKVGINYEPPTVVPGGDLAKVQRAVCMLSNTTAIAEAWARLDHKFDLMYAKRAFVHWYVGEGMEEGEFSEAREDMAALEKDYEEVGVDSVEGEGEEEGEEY
T1 sequence (P02554 whole entry): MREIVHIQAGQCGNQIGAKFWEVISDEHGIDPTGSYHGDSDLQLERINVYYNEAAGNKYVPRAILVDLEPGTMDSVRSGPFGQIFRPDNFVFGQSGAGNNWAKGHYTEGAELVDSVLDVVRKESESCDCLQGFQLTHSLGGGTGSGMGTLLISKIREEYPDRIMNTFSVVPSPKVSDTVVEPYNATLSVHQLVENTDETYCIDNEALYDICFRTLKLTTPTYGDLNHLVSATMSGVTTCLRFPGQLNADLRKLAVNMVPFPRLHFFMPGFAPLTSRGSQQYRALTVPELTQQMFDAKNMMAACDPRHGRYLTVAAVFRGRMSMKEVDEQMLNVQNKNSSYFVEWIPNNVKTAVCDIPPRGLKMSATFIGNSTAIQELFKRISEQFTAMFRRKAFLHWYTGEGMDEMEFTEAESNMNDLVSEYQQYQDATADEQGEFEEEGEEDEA
Chain of Herg receptors (Q12809 whole entry): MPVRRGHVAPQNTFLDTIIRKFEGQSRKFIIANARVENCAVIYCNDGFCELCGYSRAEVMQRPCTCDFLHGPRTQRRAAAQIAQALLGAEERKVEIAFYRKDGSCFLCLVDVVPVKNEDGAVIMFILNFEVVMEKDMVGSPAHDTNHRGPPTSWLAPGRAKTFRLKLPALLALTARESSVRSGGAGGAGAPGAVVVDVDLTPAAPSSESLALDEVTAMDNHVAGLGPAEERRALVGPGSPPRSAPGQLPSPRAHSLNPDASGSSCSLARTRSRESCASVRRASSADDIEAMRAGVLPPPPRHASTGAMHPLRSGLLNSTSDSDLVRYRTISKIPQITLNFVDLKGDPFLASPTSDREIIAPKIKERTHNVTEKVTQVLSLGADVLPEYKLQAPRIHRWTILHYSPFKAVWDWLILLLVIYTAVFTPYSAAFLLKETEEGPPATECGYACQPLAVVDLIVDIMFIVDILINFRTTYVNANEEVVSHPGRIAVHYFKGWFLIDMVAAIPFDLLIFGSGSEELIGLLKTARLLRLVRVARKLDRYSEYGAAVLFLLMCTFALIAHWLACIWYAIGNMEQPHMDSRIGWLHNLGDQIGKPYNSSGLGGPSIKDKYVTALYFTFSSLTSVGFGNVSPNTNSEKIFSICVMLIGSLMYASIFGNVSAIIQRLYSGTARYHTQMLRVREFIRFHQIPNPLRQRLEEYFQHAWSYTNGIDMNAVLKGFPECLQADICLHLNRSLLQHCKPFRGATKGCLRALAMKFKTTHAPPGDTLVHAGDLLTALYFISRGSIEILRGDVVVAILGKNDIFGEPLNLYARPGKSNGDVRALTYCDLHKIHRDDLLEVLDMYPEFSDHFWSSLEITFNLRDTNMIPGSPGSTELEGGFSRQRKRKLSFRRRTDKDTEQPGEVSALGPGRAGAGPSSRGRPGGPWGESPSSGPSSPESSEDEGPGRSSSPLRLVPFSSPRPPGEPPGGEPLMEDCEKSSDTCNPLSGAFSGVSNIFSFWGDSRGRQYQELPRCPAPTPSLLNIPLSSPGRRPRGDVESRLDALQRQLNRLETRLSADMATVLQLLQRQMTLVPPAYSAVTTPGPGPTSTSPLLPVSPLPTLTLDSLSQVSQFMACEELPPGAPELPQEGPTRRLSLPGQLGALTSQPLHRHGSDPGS

melting point	IC50 (HeLa cells)	IC50 (Tubulin)	SMILES	Ames (Ames test (mutagenicity))	IC50 (HDMEC cells)	IC50 (Herg receptors)	C51 colon Tumor necrosis In vivo (grade, scale 0 to 5) [1]
119 °C	3.48 to 3.75 nM	800 nM	COc1cc(C(=O)/C(C)=C/c2ccc3c(ccn3CCO)c2)cc(OC)c1OC [Example 1, E-2-Methyl-3-[1-(2-hydroxyethyl)indol-5-yl]-1-(3,4,5-trimethoxyphenyl)propenone]	negative	0.97 to 3.29 nM	–	–
83 °C	1.23 to 1.62 nM	600 nM	COc1cc(C(=O)/C(C)=C/c2ccc3c(ccn3CCO)c2)cc2c1OCO2 [Example 2, E-2-Methyl-3-[1-(2-hydroxyethyl)indol-5-yl]-1-(3-methoxy-4,5-methylenedioxyphenyl)propenone]	negative	0.22 to 0.61 nM	> 30000 nM	5 (considerable, >75%)
112 °C	–	830 nM	COc1ccc(OC)c(C(=O)/C(C)=C/c2ccc3c(ccn3CCO)c2)c1 [Example 3, E-2-Methyl-3-[1-(2-hydroxyethyl)-1-H-indol-5-yl]-1-(2,5-dimethoxyphenyl)propenone]	negative	–	–	–

— US20040229931A1, “1-Aryl-3-(indol-5-yl) prop-2-en-1-ones, compositions containing them and use” (Aventis Pharma S. A., priority 2003, published 2004)
